According to patent publication US20240254138A1, “TRICYCLIC PYRIMIDINES AS CYCLIN-DEPENDENT KINASE 7 (CDK7) INHIBITORS” (JANSSEN PHARMACEUTICA NV, priority 2021, published 2024):
Like-named read-outs stand apart in the source and are kept apart here.

Assays:
[1] = tested on: RNA Polymerase II Serine 5 phosphorylation in A549 cells overexpressing CDK7-mutant (C312S); test: Imaging-based cellular RNA PolII Ser5 phosphorylation assay in A549 cells overexpressing CDK7-mutant (C312S); assay type: cell-based, human; settings: RNA PolII Ser5 phosphorylation, averaged over all measurements; for IC50: Homo sapiens, A549, A549 cells overexpressing CDK7-mutant (C312S), read-out: CDK7_A549 mutant hCDK7(pIC50) (converted)
Summary of the method: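 Readout was automated imaging of anti-phospho-Ser5 Rpb1 CTD immunofluorescence, with IC50 fitted to % control versus concentration. Cells were A549 stably overexpressing non-covalently targetable CDK7 C312S alongside wild-type, exposed to compound 3 h at 37 °C. DMSO and 10 μM reference compound served as controls.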

[2] = target: CDK7/cyclinH/MAT1 trimeric complex (Homo sapiens, UniProt P50613); test: In vitro CDK7 assay, potency of irreversible covalent inhibitors (kinact/KI), coupled PK/LDH ADP readout at 340 nm; settings: for Ki: CDK7 (20 nM enz.) (KI, μM); for kinact: read-out: CDK7 (20 nM enz.) (kinact, s^−1), 20 nM enzyme
[3] = tested on: RNA Polymerase II Serine 5 phosphorylation (Rpb1 CTD, downstream substrate of CDK7) in A549 cells; test: Imaging-based cellular RNA PolII Ser5 phosphorylation assay in A549 cells; assay type: cell-based, human; settings: wild-type CDK7, RNA PolII Ser5 phosphorylation, averaged over all measurements; for IC50: Homo sapiens, A549, A549 cells, read-out: CDK7_A549 Wild-type CDK7 (pIC50) (converted)
Summary of the method: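 IC50 derived by fitting % control (DMSO high, 10 μM reference low) against concentration, with Hill slope. Readout: high-content imaging of phospho-Ser5 Rpb1 CTD antibody staining in fixed, permeabilized A549 cells exposed to compound 3 h after 20 h culture in 1% FBS DMEM.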

[4] = read-out: CDK7 (20 nM enz.) (kinact/KI, M^−1*s^−1), 20 nM enzyme

Sequence of CDK7/cyclinH/MAT1 trimeric complex (P50613 whole entry): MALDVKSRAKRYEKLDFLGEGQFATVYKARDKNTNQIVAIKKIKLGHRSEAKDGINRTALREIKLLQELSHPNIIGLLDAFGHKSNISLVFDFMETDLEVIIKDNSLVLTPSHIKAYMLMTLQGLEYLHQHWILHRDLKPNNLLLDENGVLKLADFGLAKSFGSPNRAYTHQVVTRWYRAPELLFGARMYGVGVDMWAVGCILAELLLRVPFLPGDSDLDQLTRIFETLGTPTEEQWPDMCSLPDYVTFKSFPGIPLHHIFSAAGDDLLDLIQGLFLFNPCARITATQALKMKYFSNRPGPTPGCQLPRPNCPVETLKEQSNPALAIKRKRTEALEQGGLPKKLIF
Sequence of CDK7/cyclinH/MAT1 trimeric complex (P51946 whole entry partner): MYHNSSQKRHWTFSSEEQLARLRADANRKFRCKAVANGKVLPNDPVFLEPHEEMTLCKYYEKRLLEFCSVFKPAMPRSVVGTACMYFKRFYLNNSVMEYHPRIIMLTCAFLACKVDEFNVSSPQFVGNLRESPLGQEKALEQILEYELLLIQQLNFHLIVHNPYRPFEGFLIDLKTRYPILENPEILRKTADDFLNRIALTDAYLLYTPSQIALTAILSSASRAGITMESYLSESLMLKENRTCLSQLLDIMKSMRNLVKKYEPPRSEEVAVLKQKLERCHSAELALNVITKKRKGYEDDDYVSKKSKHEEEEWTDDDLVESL
Sequence of CDK7/cyclinH/MAT1 trimeric complex (P51948 whole entry partner): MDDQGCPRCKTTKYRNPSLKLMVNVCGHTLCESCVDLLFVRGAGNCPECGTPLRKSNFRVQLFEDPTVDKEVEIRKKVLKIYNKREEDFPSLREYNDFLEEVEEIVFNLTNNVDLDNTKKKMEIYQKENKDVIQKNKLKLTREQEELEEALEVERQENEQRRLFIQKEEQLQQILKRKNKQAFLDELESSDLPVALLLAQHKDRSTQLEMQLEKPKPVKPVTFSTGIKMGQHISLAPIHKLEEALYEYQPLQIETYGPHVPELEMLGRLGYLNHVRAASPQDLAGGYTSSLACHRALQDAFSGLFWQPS

| SMILES | IC50 [1] [nM] | kinact/KI ([2]; read-out: CDK7 (20 nM enz.) (kobs/[I], M^−1*s^−1), 20 nM enzyme) [M⁻¹ s⁻¹] | IC50 [3] [nM] | Ki ([2]; 20 nM enzyme) [µM] | kinact [2] [s⁻¹] | kinact/KI [2, 4] [M⁻¹ s⁻¹] | CDK7_A549 mutant hCDK7(pIC50) ([1]; A549 cells overexpressing CDK7-mutant (C312S)) | CDK7 (20 nM enz.) (kinact/KI, M^−1*s^−1) ([2]; 20 nM enzyme) [M⁻¹ s⁻¹] | CDK7_A549 Wild-type CDK7 (pIC50) ([3]; A549 cells) |
| --- | --- | --- | --- | --- | --- | --- | --- | --- | --- |
| C=CC(=O)N1CC(N2CC[C@@H](c3ccc4c(c3)Nc3nccc(N5CCOCC5)c3CO4)[C@@H](C)C2)C1 (mixture of isomers) [Compound 70] | > 10000 | 634 | 145 | – | – | – | – | – | – |
| C=CC(=O)N1CC[C@@H](N2CC(c3cc(C)c4c(c3)Nc3nccc(N5CCOCC5)c3CO4)C2)[C@@H](F)C1 (mixture of isomers) [Compound 202] | > 10000 | – | 107 | 0.0239 | 3.55e-05 | 1490 | – | – | – |
| C=CC(=O)N1CC[C@@H](N2CC(c3cc(C)c4c(c3)Nc3nccc(-c5cnn(C)c5)c3CO4)C2)[C@H](F)C1 (mixture of isomers) [Compound 203] | > 10000 | – | 81.3 | 0.0523 | 4.19e-05 | 802 | – | – | – |
| C=CC(=O)N1CC[C@@H](N2CC(c3cc(C)c4c(c3)Nc3nccc(N5CCOCC5)c3CO4)C2)[C@H](F)C1 (mixture of isomers) [Compound 207] | > 10000 | – | 83.2 | 0.0443 | 3.83e-05 | 865 | – | – | – |
| C=CC(=O)N1CC[C@H](N2CC(c3cc4c(c(C)n3)OCc3c(-c5cnn(C)c5)ccnc3N4)C2)[C@@H](F)C1 (mixture of isomers) [Compound 212] | > 10000 | – | 398 | 0.2 | 2.94e-05 | 147 | – | – | – |
| C=CC(=O)N1CC[C@H](N2CC(c3cc4c(c(C)n3)OCc3c(-c5cnn(C)c5)ccnc3N4)C2)[C@H](F)C1 (mixture of isomers) [Compound 213] | > 10000 | – | 251 | 0.267 | 4.9e-05 | 183 | – | – | – |
| C=CC(=O)N1CC(N2CC[C@H](c3ccc4c(c3)Nc3nccc(N5CCOCC5)c3CO4)[C@@H](F)C2)C1 (mixture of isomers) [Compound 226] | – | – | – | 0.67 | 6.76e-05 | – | <5 | 100.867 | 6.55 |

Results, then the compound that gave them:

| IC50 [1] [nM] | kinact/KI ([2]; read-out: CDK7 (20 nM enz.) (kobs/[I], M^−1*s^−1), 20 nM enzyme) [M⁻¹ s⁻¹] | IC50 [3] [nM] | Ki ([2]; 20 nM enzyme) [µM] | kinact [2] [s⁻¹] | kinact/KI [2, 4] [M⁻¹ s⁻¹] | CDK7_A549 mutant hCDK7(pIC50) ([1]; A549 cells overexpressing CDK7-mutant (C312S)) | CDK7 (20 nM enz.) (kinact/KI, M^−1*s^−1) ([2]; 20 nM enzyme) [M⁻¹ s⁻¹] | CDK7_A549 Wild-type CDK7 (pIC50) ([3]; A549 cells) | SMILES |
| --- | --- | --- | --- | --- | --- | --- | --- | --- | --- |
| > 10000 | – | 589 | 0.412 | 6.82e-05 | 166 | – | – | – | C=CC(=O)N1CC(N2CC[C@@H](c3ccc4c(c3)Nc3nccc(N5CCOCC5)c3CO4)[C@H](O)C2)C1 (mixture of isomers) [Compound 72] |
| ~10000 | – | 93.3 | 0.0506 | 4.11e-05 | 812 | – | – | – | C=CC(=O)N1CC[C@H](N2CC(c3cc(C)c4c(c3)Nc3nccc(C5CCOCC5)c3CO4)C2)[C@H](F)C1 (mixture of isomers) [Compound 200] |
| ~10000 | – | 89.1 | 0.0701 | 3.6e-05 | 514 | – | – | – | C=CC(=O)N1CC[C@@H](N2CC(c3cc(C)c4c(c3)Nc3nccc(-c5cnn(C)c5)c3CO4)C2)[C@@H](F)C1 (mixture of isomers) [Compound 201] |
| > 10000 | – | 631 | 0.114 | 2.74e-05 | 240 | – | – | – | C=CC(=O)N1CC[C@@H](N2CC(c3cc4c(c(C)n3)OCc3c(N5CCOCC5)ccnc3N4)C2)[C@H](F)C1 (mixture of isomers) [Compound 220] |
| > 10000 | – | 178 | 0.129 | 6.25e-05 | 486 | – | – | – | C=CC(=O)N1CC(N2CC[C@@H](c3ccc4c(c3)Nc3nccc(N5CCOCC5)c3CO4)[C@@H](O)C2)C1 (mixture of isomers) [Compound 228] |
| > 10000 | – | 2750 | – | – | – | – | – | – | CC#CC(=O)N1CCC(N2CC(c3nc(C)c4c(n3)Nc3nccc(N5CCOCC5)c3[C@@H](C)O4)C2)CC1 [Compound 546] |
| > 10000 | – | > 10000 | – | – | – | – | – | – | CC#CC(=O)N1CCC(N2CC(c3nc(C)c4c(n3)Nc3nccc(N5CCOCC5)c3[C@H](C)O4)C2)CC1 [Compound 547] |
